Converted amounts (≈) assume the structure as drawn. Read-outs that look alike come from different tables or passages of the source.
Tests used:
human RXFP1 = biological target: T1, human RXFP1 (Homo sapiens, UniProt Q9HBX9); assay: RXFP1 Hu cAMP (Test A); format: cell-based; design: expressed in transfected cells; host or cells: Jump-In T-REx CHO-K1 cells (ThermoFisher), induced with 10 ng/ml doxycycline for 24 h
T1 sequence (Q9HBX9 1-757): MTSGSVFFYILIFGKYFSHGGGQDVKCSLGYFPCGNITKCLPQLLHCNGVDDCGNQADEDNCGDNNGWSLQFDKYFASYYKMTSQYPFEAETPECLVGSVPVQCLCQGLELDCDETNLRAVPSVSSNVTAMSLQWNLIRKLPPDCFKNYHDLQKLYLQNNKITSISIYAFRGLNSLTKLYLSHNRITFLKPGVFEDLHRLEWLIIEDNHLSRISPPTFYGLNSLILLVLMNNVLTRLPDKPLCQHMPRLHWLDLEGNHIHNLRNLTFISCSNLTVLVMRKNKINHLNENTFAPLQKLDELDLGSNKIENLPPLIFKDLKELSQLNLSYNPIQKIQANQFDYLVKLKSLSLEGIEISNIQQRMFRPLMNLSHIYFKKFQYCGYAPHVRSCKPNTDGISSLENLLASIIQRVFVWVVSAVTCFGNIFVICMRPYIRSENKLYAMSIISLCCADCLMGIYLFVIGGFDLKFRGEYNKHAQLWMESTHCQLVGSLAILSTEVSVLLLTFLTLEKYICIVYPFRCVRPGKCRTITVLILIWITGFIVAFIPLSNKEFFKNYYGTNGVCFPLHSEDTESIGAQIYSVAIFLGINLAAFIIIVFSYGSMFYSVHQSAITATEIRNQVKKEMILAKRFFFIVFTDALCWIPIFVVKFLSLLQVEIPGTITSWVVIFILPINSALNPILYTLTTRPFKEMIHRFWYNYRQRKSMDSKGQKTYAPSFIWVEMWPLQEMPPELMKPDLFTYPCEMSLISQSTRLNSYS
In short: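 Cells: CHO-K1 stably carrying human RXFP1, expressed after 24 h 10 ng/ml doxycycline; 0.5 mM IBMX final, HTRF detection after 2 h at room temperature.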

[1] = Rat Hepatocyte Stability (Test E); format: in vitro ADME; details: rat, hepatocytes, geometric mean if run multiple times
Protocol: Rat Hepatocyte Stability (Test E)
The assay was conducted according to the Rat Hepatocyte Stability Assay described in pages 170-174 of Wernevik, J. et al., “A Fully Integrated Assay Panel for Early Drug Metabolism and Pharmacokinetics Profiling”, Assay and Drug Development Technologies, 2020, 18(4), 157-179. Data are reported in Table 36 as mean Clint(μl/min/10^6 cells). Where the assay was run multiple times for the same compound, the geometric mean is reported.

[2] = Human Liver Microsomal Stability (Test C); format: in vitro ADME; details: human, liver microsomes
Protocol: Human Liver Microsomal Stability (Test C)
The assay was conducted according to the Human Liver Microsome Stability Assay described in pages 170-174 of Wernevik, J. et al., “A Fully Integrated Assay Panel for Early Drug Metabolism and Pharmacokinetics Profiling”, Assay and Drug Development Technologies, 2020, 18(4), 157-179. Data are reported in Table 36 as CLint (μl/min/mg protein). Where the assay was run multiple times for the same compound, the arithmetic mean is reported.

Solubility (Test F) = format: physicochemical; details: arithmetic mean if run multiple times
Protocol: The assay was conducted according to the Solubility Assay described in pages 164-167 of Wernevik, J. et al., “A Fully Integrated Assay Panel for Early Drug Metabolism and Pharmacokinetics Profiling”, Assay and Drug Development Technologies, 2020, 18(4), 157-179. Data are reported in Table 36 as solubility ([…]. Where the assay was run multiple times for the same compound, the arithmetic mean is reported.

[3] = RXFP1 Hu cAMP, read-out: Test A EC50

Test A Sinf (human RXFP1; RXFP1 Hu cAMP)	hepatocyte CLint [1]	microsomal CLint [2]	solubility (Solubility (Test F))	EC50 (human RXFP1; [3])	Compound	EC50 (human RXFP1; Test A EC50, RXFP1 Hu cAMP)
105%	11 µL/min/1e6 cells	7 µL/min/mg	> 1000 µM	–	COc1cc(F)c(O[C@H]2CC[C@@](C)(C(=O)O)CC2)cc1C(=O)N[C@@H]1CCC[C@@H]1C(=O)N[C@H](C)C(C)C [Example 60]	–
93%	55 µL/min/1e6 cells	94 µL/min/mg	> 1000 µM	> 4200 nM	COc1cc(F)c(O[C@H]2CC[C@@](C)(C(=O)O)CC2)cc1C(=O)N[C@@H]1CCC[C@@H]1C(=O)NC(C(C)C)C(C)C [Example 62]	–
85%	16 µL/min/1e6 cells	20 µL/min/mg	860 µM (≈ 558 µg/mL)	–	COc1cc(F)c(-c2ccc(C(=O)O)c(C)c2)cc1C(=O)N[C@@H]1[C@H]2CC[C@H](C2)[C@@H]1C(=O)Nc1cccc(S(=O)(=O)C(F)(F)F)c1 [Example 246]	–
107%	67 µL/min/1e6 cells	74 µL/min/mg	870 µM (≈ 476 µg/mL)	–	COc1cc(F)c(O[C@H]2CC[C@@](C)(C(=O)O)CC2)cc1C(=O)N[C@@H]1CCC[C@@H]1C(=O)NCC1(C)CCCCC1 [Example 64]	–
–	19 µL/min/1e6 cells	11 µL/min/mg	610 µM (≈ 316 µg/mL)	> 50000 nM	COc1cc(F)c(O[C@H]2CC[C@@](C)(C(=O)O)CC2)cc1C(=O)N[C@@H]1CCC[C@@H]1C(=O)N[C@@H](C)C1(C)CC1 (racemic) [Example 63]	–
128%	–	–	–	9200 nM	COc1cc(F)c(O[C@H]2CC[C@@](C)(C(=O)O)CC2)cc1C(=O)NC1CCC1C(=O)Nc1ccc(F)c(S(F)(F)(F)(F)F)c1 (single isomer, unassigned) [Example 570, (1R,4s)-4-(2-Fluoro-5-(((1S*,2R*)-2-((4-fluoro-3-(pentafluoro-λ6-sulfaneyl)phenyl)carbamoyl)cyclobutyl)carbamoyl)-4-methoxyphenoxy)-1-methylcyclohexane-1-carboxylic acid]	–
61%	–	–	–	5700 nM	COc1cc(F)c(-c2ccc(C(=O)O)nc2)cc1C(=O)N[C@H]1[C@@H](C(=O)Nc2cccc(S(=O)(=O)C(F)(F)F)c2)[C@@H]2C=C[C@H]1C2 (racemic) [Example 274, rac-5-(2-Fluoro-4-methoxy-5-(((1R,2R,3S,4S)-3-((3-((trifluoromethyl)sulfonyl)phenyl)carbamoyl)bicyclo[2.2.1]hept-5-en-2-yl)carbamoyl)phenyl)picolinic acid]	–
–	–	–	–	> 40000 nM	COc1cc(F)c(Cn2nccc2C(=O)O)cc1C(=O)N[C@@H]1[C@H]2CC[C@H](C2)[C@@H]1C(=O)Nc1cccc(S(=O)(=O)C(F)(F)F)c1 [Example 221, 1-(2-Fluoro-4-methoxy-5-(((1S,2R,3S,4R)-3-((3-((trifluoromethyl)sulfonyl)phenyl)carbamoyl)bicyclo[2.2.1]heptan-2-yl)carbamoyl)benzyl)-1H-pyrazole-5-carboxylic acid]	–
99%	–	–	–	36 nM	COc1cc(C#N)c(O[C@H]2CC[C@@](C)(C(=O)O)CC2)cc1C(=O)N[C@H]1[C@@H](C(=O)NCC2(C)CCC2)[C@H]2C=C[C@@H]1CC2 (racemic) [Example 469, (1R,4s)-4-(2-Cyano-4-methoxy-5-(((1RS,2SR,3RS,4SR)-3-(((1-methylcyclobutyl)methyl)carbamoyl)bicyclo[2.2.2]oct-5-en-2-yl)carbamoyl)phenoxy)-1-methylcyclohexane-1-carboxylic acid]	–
97%	–	–	–	3900 nM	COc1cc(F)c(O[C@H]2CC[C@@](C)(C(=O)O)CC2)cc1C(=O)N[C@@H]1COC[C@@H]1C(=O)NCC1(C)CCC1 (racemic) [Example 350]	–
118%	–	–	–	520 nM	COc1cc(F)c(O[C@H]2CC[C@@](C)(C(=O)O)CC2)cc1C(=O)N[C@@H]1[C@H]2CC[C@H](C2)[C@@H]1C(=O)NCC1(OC)CCC1 [Example 593, (1S,4s)-4-(2-Fluoro-4-methoxy-5-(((1S,2R,3S,4R)-3-(((1-methoxycyclobutyl)methyl)carbamoyl)bicyclo[2.2.1]heptan-2-yl)carbamoyl)phenoxy)-1-methylcyclohexane-1-carboxylic acid]	–
111%	–	–	–	270 nM	COc1cc(C#N)c(O[C@H]2CC[C@@](C)(C(=O)O)CC2)cc1C(=O)Nc1cc(C)ccc1C(=O)N[C@H]1CC[C@H](C)CC1 [Example 169]	–
86%	–	–	–	680 nM	COc1ccc(Oc2ccc(C(=O)O)cc2)cc1C(=O)N[C@H]1[C@@H](C(=O)Nc2cccc(S(=O)(=O)C(F)(F)F)c2)[C@@H]2C=C[C@H]1C2 (racemic) [Example 427]	–
95%	–	–	–	–	COc1cc(F)c(-c2ccc(C(=O)O)cc2)cc1C(=O)N[C@@H]1[C@H]2CC[C@H](C2)[C@@H]1C(=O)NCC(C)(C)C [Example 304]	–
99%	–	–	–	5100 nM	COc1cc(F)c(O[C@H]2CC[C@@](C)(C(=O)O)CC2)cc1C(=O)N[C@H]1[C@@H](C(=O)NCC2(C)CCC2)[C@@H]2CC[C@H]1O2 (racemic) [Example 358]	–
112%	–	–	–	13 nM	COc1cc(F)c(O[C@H]2CC[C@@](OC)(C(=O)O)CC2)cc1C(=O)N[C@@H]1[C@@H]2CC[C@@H](C2)[C@@H]1C(=O)Nc1cccc(S(=O)(=O)C(F)(F)F)c1 [Example 508, (1R,4r)-4-(2-Fluoro-4-methoxy-5-(((1R,2R,3S,4S)-3-((3-((trifluoromethyl)sulfonyl)phenyl)carbamoyl)bicyclo[2.2.1]heptan-2-yl)carbamoyl)phenoxy)-1-methoxycyclohexane-1-carboxylic acid]	–
111%	–	–	–	12 nM	COc1cc(C#N)c(O[C@H]2CC[C@@](C)(C(=O)O)CC2)cc1C(=O)Nc1cc(Cl)ccc1C(=O)NC(C)(C)C1CC1 [Example 165]	–
102%	–	–	–	86 nM	COc1cc(F)c(O[C@H]2CC[C@@](O)(C(=O)O)CC2)cc1C(=O)N[C@@H]1[C@@H]2CC[C@@H](C2)[C@@H]1C(=O)Nc1cccc(S(=O)(=O)C(F)(F)F)c1 (racemic) [Example 422, (1R,4r)-4-(2-Fluoro-4-methoxy-5-(((1RS,2RS,3SR,4SR)-3-((3-((trifluoromethyl)sulfonyl)phenyl)carbamoyl)bicyclo[2.2.1]heptan-2-yl)carbamoyl)phenoxy)-1-hydroxycyclohexane-1-carboxylic acid]	–
96%	–	–	–	–	COc1cc(F)c(O[C@H]2CC[C@@](C)(C(=O)O)CC2)cc1C(=O)N[C@@H]1CC[C@@H]1C(=O)NCC(C)(C)C (racemic) [Example 346]	–
110%	–	–	–	3.2 nM	COc1cc(F)c(O[C@H]2CC[C@@](C)(C(=O)O)CC2)cc1C(=O)N[C@@H]1[C@@H]2CC[C@@H](C2)[C@@H]1C(=O)Nc1cccc(S(=O)(=O)C(F)(F)F)c1 (racemic) [Example 367]	–
100%	–	–	–	250 nM	COc1cc(F)c(O[C@H]2CC[C@@](C)(C(=O)O)CC2)cc1C(=O)N[C@@H]1[C@H]2CC[C@H](C2)[C@@H]1C(=O)NC(C)(C)C [Example 602]	–

Compound	Test A Sinf (human RXFP1; RXFP1 Hu cAMP)	hepatocyte CLint [1]	microsomal CLint [2]	solubility (Solubility (Test F))	EC50 (human RXFP1; [3])	EC50 (human RXFP1; Test A EC50, RXFP1 Hu cAMP)
CC1(CNC(=O)[C@H]2[C@@H]3CC[C@@H](C3)[C@H]2NC(=O)c2cc(O[C@H]3CC[C@@](C)(C(=O)O)CC3)c(F)cc2OCF)CCC1 [Example 4, (1S,4s)-4-(2-Fluoro-4-(fluoromethoxy)-5-(((1S,2R,3S,4R)-3-(((1-methylcyclobutyl)methyl)carbamoyl)bicyclo[2.2.1]heptan-2-yl)carbamoyl)phenoxy)-1-methylcyclohexane-1-carboxylic acid]	103%	6.9 µL/min/1e6 cells	36 µL/min/mg	> 1000 µM	–	4.7 nM

Reference: patent US11667602B2, “Compounds and their use” (AstraZeneca AB, priority 2020, dated 2023)
